Experimental data from patent publication US20230102192A1, “THERAPIES FOR THE TREATMENT OF DISEASES AND DISORDERS ASSOCIATED WITH ABNORMAL EXPRESSION OF A NEURAL-ASSOCIATED GENE” (The Regents of the University of California, priority 2020, published 2023).
“Also recorded” adds a separate entry of the source. Like-named read-outs stand apart in the source and are kept apart here.

How the values were obtained:
[1] = system: MECP2-KO cortical organoids; experiment: Cortical organoid diameter; assay type: cell-based, human; conditions: 1 μM for one month, 2-month old organoids
Description: Generation of cortical organoids. Cortical organoid generation was performed according to Trujillo et al. (Cell Stem Cell 25:558-569.e7 (2019)). iPSCs cultured 5-7 d were dissociated with 1:1 Accutase (Life Technologies) in PBS, and 4×10^6 cells/well in mTeSR1 supplemented with 10 μM SB (Stemgent), 1 μM Dorso (R&D Systems), and 5 μM Y-27632 (EMD-Millipore, Burlington, Mass., USA) were plated on rotating suspension. […]
(§1) Nefiracetam and PHA 543613 rescue network activity in MECP2-KO cortical organoids. The therapeutic efficacy of Nefiracetam and PHA 543613 was evaluated with cortical organoids, a complex, three-dimensional human neurodevelopmental model that closely recapitulates aspects of human fetal neurodevelopment. […]

GABAA receptor = conditions: read-out: affinity for the GABAA receptor (IC50); cited from earlier work
[2] = system: MECP2-KO cortical organoids; experiment: Synapsin1+ puncta quantitation in cortical organoids; assay type: cell-based, human; conditions: 1 μM for one month, vs untreated
Description: Immunofluorescence of cells and cortical organoids. Immunofluorescence was performed as described in Chailangkam et al. Cells fixed in 4% PFA were PBS-washed and permeabilized/blocked (0.1% Triton X-100, 2% BSA). Cortical organoids fixed in 4% PFA were transferred to 30% sucrose, sunken, embedded in O.C.T. (Sakura, Tokyo, Japan), and cryostat-sectioned. Air-dried slides with organoid sections were permeabilized/blocked (0.1% Triton X-100, 3% FBS, PBS). […] Slides or coverslips were mounted with ProLong Gold anti-fade mountant (Life Technologies) and analyzed with a Z1 Axio Observer Apotome fluorescence microscope (Zeiss, Oberkochen, Germany).
as §1

[3] = system: MECP2-KO cortical organoids; experiment: RNA sequencing and gene ontology analysis of cortical organoids; assay type: cell-based, human; conditions: 1 μM for one month, two-month old organoids
Description: RNA-seq analyses. RNA-seq analyses were performed as described in Marchetto et al. (Nature 504:525-529 (2013)). Briefly, RNeasy Mini kit (Qiagen) isolated RNA for library preparation (Illumina TruSeq RNA Sample Preparation Kit; San Diego, Calif., USA) and sequencing (Illumina HiSeq2000, 50 bp paired-end reads, 50 million high-quality sequencing fragments per sample on average).
Gene ontology (GO) analysis. RNA-seq enrichment was with plugins WebGestalt and Cytoscape and considered only statistically significant categories (P<0.05). Genes evaluated for differential expression set the background for GO annotation and enrichment analysis.
Nefiracetam and PHA 543613 rescue network activity in MECP2-KO cortical organoids. The therapeutic efficacy of Nefiracetam and PHA 543613 was evaluated with cortical organoids, a complex, three-dimensional human neurodevelopmental model that closely recapitulates aspects of human fetal neurodevelopment. MECP2-KO and control cortical organoids were generated, as described above (see FIG. 9A, and FIG. 10A-B). One-month old cortical organoids were treated for another month with either Nefiracetam (1 μM) or PHA 543613 (1 μM), and experiments and analyses were performed using organoids at 2-3 months of age. […]

[4] = in vivo, cited from earlier work
[5] = target: α7 subtype of neural nicotinic acetylcholine receptors (Homo sapiens, UniProt P36544); conditions: cited from earlier work
α7 subtype of neural nicotinic acetylcholine receptors, sequence (P36544 23-502): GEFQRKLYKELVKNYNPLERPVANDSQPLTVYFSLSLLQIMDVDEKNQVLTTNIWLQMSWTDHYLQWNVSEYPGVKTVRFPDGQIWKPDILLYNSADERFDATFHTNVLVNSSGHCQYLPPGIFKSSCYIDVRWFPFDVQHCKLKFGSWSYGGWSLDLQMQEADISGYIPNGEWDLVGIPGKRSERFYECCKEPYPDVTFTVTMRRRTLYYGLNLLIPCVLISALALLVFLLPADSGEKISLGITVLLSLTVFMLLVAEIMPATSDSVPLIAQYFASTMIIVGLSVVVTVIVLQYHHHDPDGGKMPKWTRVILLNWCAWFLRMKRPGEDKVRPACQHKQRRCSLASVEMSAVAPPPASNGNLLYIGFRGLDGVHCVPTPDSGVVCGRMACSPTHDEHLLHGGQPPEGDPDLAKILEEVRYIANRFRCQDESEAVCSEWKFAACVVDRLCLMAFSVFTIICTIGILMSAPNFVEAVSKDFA

SMILES | diameter of MECP2-KO organoids [1] | IC50 (GABAA receptor) [nM] | synaptic puncta (Synapsin1+) [2] | expression of genes in pathways relevant to synaptic function [3] | brain penetration [4] | oral bioavailability [4] | brain penetration ([4]; listed as PHA-543613) | oral bioavailability ([4]; listed as PHA-543613) | agonist activity at α7 nAChR [5]
Cc1cccc(C)c1NC(=O)CN1CCCC1=O [Nefiracetam, nefiracetam] | increased | 8.5 | increase | promoted expression; also recorded: upregulated genetic expression | – | – | – | – | –
O=C(N[C@H]1CN2CCC1CC2)c1cc2ccoc2cn1 [PHA 543613, N-[(3R)-1-azabicyclo[2.2.2]oct-3-yl]furo[2,3-c]pyridine-5-carboxamide] | increased | – | – | promoted expression; also recorded: upregulated expression | rapid brain penetration | high oral bioavailability | high level of brain penetration | good oral bioavailability | potent and selective agonist
